Reference: patent US20230312587A1, “PTERIDINONE COMPOUNDS AND USES THEREOF” (Vertex Pharmaceutical Incorporated, priority 2018, published 2023)

Test system: β-catenin-TCF-mediated reporter transcription activity in Colo 205 cells
Experiment: Colo 205 reporter assay (TCF/LEF luciferase)
Format: cell-based
Conditions: Colo 205 TCF/LEF luciferase reporter, five hours after addition of compound; read-out: TCF reporter Colo205 IC50
Text: The compounds of the invention described herein were screened using the assay procedure for β-catenin-TCF-mediated reporter transcription activity described below.
Reporter cell lines were generated by stably transfecting cells of cancer cell lines (e.g., colon cancer) with a plasmid reporter construct (From SABiosciences, a QIAGEN company) that includes TCF/LEF promoter driving expression of the firefly luciferase gene. TCF/LEF reporter constructs were made in which TCF/LEF promoter, a promoter with optimal number of TCF/LEF binding sites designed by SABiosceinces, was linked upstream of the firefly luciferase gene. This construct could also include a puromycin resistance gene as a selectable marker. This construct could also be used to stably transfect Colo 205 cells, a colon cancer cell line having a mutated APC gene that causes a constitutively active β-catenin. A control cell line was generated using another plasmid construct containing the luciferase gene under the control of a CMV basal promoter which is not activated by p-catenin.
Colo 205 Cultured cells with a stably transfected reporter construct were plated at approximately 10,000 cells per well into 384 well multi-well plates for twenty four hours. The testing compounds were then added to the wells in 2-fold serial dilutions using a twenty micromolar top concentration. A series of control wells for each cell type received only compound solvent. Five hours after the addition of compound, reporter activity for luciferase was assayed, by addition of the SteadyGlo luminescence reagent (Promega). The reporter luminescence activity was measured using Pherastar plate reader (BMG Labtech). Readings were normalized to DMSO only treated cells, and normalized activities were then used in the IC50 calculations. The Colo 205 reporter assay data are summarized in Table 45: A<0.3 μM; 0.3 μM≤B<1.0 μM; 1.0 μM≤C<5.0 μM; D≥5.0 μM
Colo 205 reporter assay data has also been obtained for certain R-isomers of Formula (I) wherein R^4 is —H or -D, and wherein the carbon to which R^3 and R^4 are attached (C2 carbon of Formula (X)) has R stereochemistry; such epimeric compounds are represented using the suffix “B” attached to the Compound described herein having the S stereochemistry at the carbon to which R^3 and R^4 are attached: […]

| SMILES | IC50 |
| --- | --- |
| Cc1nc(N[C@H]2C[C@H](Oc3cc(F)c(F)c(F)c3)C2)nc2c1NC(=O)[C@H]([C@H](C)OC(C)(C)C)N2C [Compound 745, (S)-7-((S)-1-(tert-butoxy)ethyl)-4,8-dimethyl-2-(((1r,3S)-3-(3,4,5-trifluorophenoxy)cyclobutyl)amino)-7,8-dihydropteridin-6(5H)-one] | 300 to 1000 nM |

Same assay, conditions: Homo sapiens, 5 h; Colo 205 TCF/LEF luciferase reporter, five hours after addition of compound; read-out: TCF reporter Colo205 IC50

| SMILES | IC50 |
| --- | --- |
| Cc1nc(N[C@H]2C[C@H](NC(=O)Oc3ccc(F)cc3)C2)nc2c1NC(=O)[C@H](C)N2C [Compound 465, 4-fluorophenyl (trans-3-(((S)-4,7,8-trimethyl-6-oxo-5,6,7,8-tetrahydropteridin-2-yl)amino)cyclobutyl)carbamate] | 300 to 1000 nM |

Same assay, conditions: Homo sapiens, COLO 205, 5 h, Colo 205 TCF/LEF luciferase reporter, five hours after addition of compound; read-out: TCF reporter Colo205 IC50

| SMILES | IC50 |
| --- | --- |
| Cc1nc(N[C@H]2C[C@@H](NC(=O)Nc3ccc(F)c(F)c3F)C2)nc2c1NC(=O)[C@H](C)N2C [Compound 460, 1-(2,3,4-trifluorophenyl)-3-(cis-3-(((S)-4,7,8-trimethyl-6-oxo-5,6,7,8-tetrahydropteridin-2-yl)amino)cyclobutyl)urea] | < 300 nM |
| Cc1nc(N[C@H]2C[C@@H](Nc3cccc(C(F)(F)F)n3)C2)nc2c1NC(=O)[C@H](C(C)C)N2C [Compound 532, (S)-7-isopropyl-4,8-dimethyl-2-((cis-3-((6-(trifluoromethyl)pyridin-2-yl)amino)cyclobutyl)amino)-7,8-dihydropteridin-6(5H)-one] | 300 to 1000 nM |
| Cc1nc(N[C@H]2C[C@H](Oc3ccc(C(F)(F)F)cc3)C2)nc2c1N(C)C(=O)[C@H](C)N2C [Compound 341, (7S)-4,5,7,8-tetramethyl-2-((trans-3-(4-(trifluoromethyl)phenoxy)-cyclobutyl)-amino)-7,8-dihydropteridin-6(5H)-one] | < 300 nM |
| Cc1nc(NCc2cnn(Cc3ccc(C(F)(F)F)nc3)c2)nc2c1NC(=O)[C@H](C1CCC1)N2C [Compound 567, (7S)-7-cyclobutyl-4,8-dimethyl-2-(((1-((6-(trifluoromethyl)pyridin-3-yl)methyl)-1H-pyrazol-4-yl)methyl)amino)-7,8-dihydropteridin-6(5H)-one] | < 300 nM |
| Cc1nc(N[C@H]2C[C@H](Nc3ccc(C(F)(F)F)cn3)C2)nc2c1NC(=O)[C@H](C(C)C)N2C [Compound 533, (S)-7-isopropyl-4,8-dimethyl-2-((trans-3-((5-(trifluoromethyl)pyridin-2-yl)amino)cyclobutyl)amino)-7,8-dihydropteridin-6(5H)-one] | 300 to 1000 nM |
| Cc1nc(N[C@H]2C[C@H](OCc3ccc(F)c(F)c3)C2)nc2c1NC(=O)[C@H](C)N2C [Compound 264, (7S)-2-((trans-3-((3,4-difluorobenzyl)oxy)cyclobutyl)amino)-4,7,8-trimethyl-7,8-dihydropteridin-6(5H)-one] | < 300 nM |
| Cc1nc(N[C@@H]2CC[C@H](N(C)c3ccc(C(F)(F)F)cc3)C2)nc2c1NC(=O)[C@H](C(C)C)N2C [Compound 505, (S)-7-isopropyl-4,8-dimethyl-2-(((1R,3S)-3-(methyl(4-(trifluoromethyl)phenyl)amino)cyclopentyl)amino)-7,8-dihydropteridin-6(5H)-one] | 1000 to 5000 nM |
| Cc1nc(N[C@H]2C[C@@H](Sc3cc(F)c(F)c(F)c3)C2)nc2c1N(C)C(=O)[C@H](C)N2C [Compound 331, (7S)-4,5,7,8-tetramethyl-2-((cis-3-((3,4,5-trifluorophenyl)thio)cyclobutyl)amino)-7,8-dihydropteridin-6(5H)-one] | < 300 nM |
| Cc1nc(N[C@H]2C[C@@H](Nc3cc(F)c(F)c(F)c3)C2)nc2c1NC(=O)[C@H](C)N2C [Compound 485, (S)-4,7,8-trimethyl-2-((cis-3-((3,4,5-trifluorophenyl)amino)cyclobutyl)amino)-7,8-dihydropteridin-6(5H)-one] | < 300 nM |
| Cc1nc(N[C@H]2C[C@@H](NCc3cc(F)c(F)c(F)c3)C2)nc2c1NC(=O)[C@H](C(C)C)N2C [Compound 536, (S)-7-isopropyl-4,8-dimethyl-2-((cis-3-((3,4,5-trifluorobenzyl)amino)cyclobutyl)amino)-7,8-dihydropteridin-6(5H)-one] | < 300 nM |
| Cc1nc(NC2CN(C(=O)c3cc(C(C)C)on3)C2)nc2c1NC(=O)[C@H](C(C)C)N2C [Compound 619, (S)-7-isopropyl-2-((1-(5-isopropylisoxazole-3-carbonyl)azetidin-3-yl)amino)-4,8-dimethyl-7,8-dihydropteridin-6(5H)-one] | 1000 to 5000 nM |
| Cc1nc(N[C@H]2C[C@H](Oc3ccc(OC(F)(F)F)cc3)C2)nc2c1N(C)C(=O)[C@H](C)N2C [Compound 325, (7S)-4,5,7,8-tetramethyl-2-((trans-3-(4-(trifluoromethoxy)phenoxy)-cyclobutyl)amino)-7,8-dihydropteridin-6(5H)-one] | 300 to 1000 nM |
| C[C@H]1C(=O)Nc2cnc(NCc3cnn(CCOc4ccc(F)cc4)c3)nc2N1C [Compound 109, (7S)-2-(((1-(2-(4-fluorophenoxy)ethyl)-1H-pyrazol-4-yl)methyl)amino)-7,8-dimethyl-7,8-dihydropteridin-6(5H)-one] | 1000 to 5000 nM |
| CO[C@H](C)[C@H]1C(=O)Nc2c(C)nc(N[C@@H]3CC[C@H](Nc4cnc(C(F)(F)F)cn4)C3)nc2N1C [Compound 736, (S)-7-((R)—1-methoxyethyl)-4,8-dimethyl-2-(((1R,3S)-3-((5-(trifluoromethyl)pyrazin-2-yl)amino)cyclopentyl)amino)-7,8-dihydropteridin-6(5H)-one] | 300 to 1000 nM |
| Cc1nc(N[C@H]2C[C@H](n3nccc3C(F)(F)F)C2)nc2c1NC(=O)[C@H](C(C)C)N2C [Compound 673, (7S)-7-isopropyl-4,8-dimethyl-2-((trans-3-(5-(trifluoromethyl)-1H-pyrazol-1-yl)cyclobutyl)amino)-7,8-dihydropteridin-6(5H)-one] | 300 to 1000 nM |
| Cc1nc(N[C@H]2C[C@@H](Cn3cnc(C(F)(F)F)c3)C2)nc2c1NC(=O)[C@H](C(C)C)N2C [Compound 680, (S)-7-isopropyl-4,8-dimethyl-2-((cis-3-((4-(trifluoromethyl)-1H-imidazol-1-yl)methyl)cyclobutyl)amino)-7,8-dihydropteridin-6(5H)-one] | 300 to 1000 nM |
| Cc1nc(N[C@H]2C[C@@H](COc3ccc(F)cc3Cl)C2)nc2c1NC(=O)[C@H](C)N2C [Compound 282, (7S)-2-((cis-3-((2-chloro-4-fluorophenoxy)methyl)cyclobutyl)amino)-4,7,8-trimethyl-7,8-dihydropteridin-6(5H)-one] | < 300 nM |
| CC[C@H]1C(=O)Nc2c(C)nc(N[C@@H]3CC[C@H](Nc4cnc(C(F)(F)F)cn4)C3)nc2N1C [Compound 738, (S)-7-ethyl-4,8-dimethyl-2-(((1R,3S)-3-((5-(trifluoromethyl)pyrazin-2-yl)amino)cyclopentyl)amino)-7,8-dihydropteridin-6(5H)-one] | 300 to 1000 nM |
| Cc1nc(NC2COC(Cn3nccc3C(F)(F)F)C2)nc2c1NC(=O)[C@H](C)N2C (stereo partly drawn) [Compound 306, (7S)-4,7,8-trimethyl-2-((cis-5-((5-(trifluoromethyl)-1H-pyrazol-1-yl)methyl)-tetrahydrofuran-3-yl)amino)-7,8-dihydropteridin-6(5H)-one] | 1000 to 5000 nM |
| Cc1nc(N[C@H]2C[C@H](Oc3ncc(F)cn3)C2)nc2c1NC(=O)[C@H](C)N2C [Compound 276, (7S)-2-((trans-3-((5-fluoropyrimidin-2-yl)oxy)cyclobutyl)amino)-4,7,8-trimethyl-7,8-dihydropteridin-6(5H)-one] | ≥ 5000 nM |
| CCN1C(=O)[C@H](C)N(C)c2nc(N[C@H]3C[C@H](Oc4cc(F)c(F)c(F)c4)C3)nc(C)c21 [Compound 312, (7S)-5-ethyl-4,7,8-trimethyl-2-((trans-3-(3,4,5-trifluorophenoxy)-cyclobutyl)amino)-7,8-dihydropteridin-6(5H)-one] | < 300 nM |
| CC[C@H]1C(=O)Nc2c(C)nc(N[C@H]3C[C@@H](CNc4cnc(C(F)(F)F)cn4)C3)nc2N1C [Compound 713, (S)-7-ethyl-4,8-dimethyl-2-((cis-3-(((5-(trifluoromethyl)pyrazin-2-yl)amino)methyl)cyclobutyl)amino)-7,8-dihydropteridin-6(5H)-one] | < 300 nM |
| Cc1nc(NCc2cnn(C3CCNCC3)c2)nc2c1NC(=O)[C@H](C)N2C [Compound 99, (7S)-4,7,8-Trimethyl-2-(((1-(piperidin-4-yl)-1H-pyrazol-4-yl)methyl)amino)-7,8-dihydropteridin-6(5H)-one] | ≥ 5000 nM |

Same assay, conditions: Homo sapiens, COLO 205, 5 h, R-isomer at C2 (corresponding to C2 S-isomer); Colo 205 TCF/LEF luciferase reporter, 5 h; read-out: TCF reporter Colo205 IC50

| SMILES | IC50 |
| --- | --- |
| Cc1nc(NCc2cnn(Cc3ccc(C(F)(F)F)nc3)c2)nc2c1NC(=O)[C@@H](C1CC1)N2C [Compound I-1639] | 1000 to 5000 nM |
